Patent US10166211B1, “Nitric oxide releasing compound, pharmaceutical composition, use and synthesis method thereof” (NATIONAL CHIAO TUNG UNIVERSITY, priority 2017, dated 2019)

What was measured:
EAHY926 cells [1] = assay: Wound healing assay (in vitro scratch); format: cell-based, human; conditions: EAHY926, 7.8 μM, 1 mm wide line, 24th hour, FIGS. 9A-9I
Protocol: (§1) In the present disclosure, the cell line for the cell experiment is EAHY926 (human vascular endothelial cell line), and the mouse strain for the animal experiment is BALB/c Nude mouse.
EAHY926 cells were seeded in cell culture plates at 37° C. […] A 1 millimeter (mm) wide line was scraped off in a culture plate, and images of the culture were taken within the first hour and the 24th hour to record and quantify the percentage of wound healing.

EAHY926 cells [2] = assay: Cell viability (MTT) of the cell cultures of the wound healing test; format: cell-based, human; conditions: EAHY926, 7.8 μM, FIG. 11
From the text: (§2) In this experiment, 3-(4,5-cimethylthiazol-2-yl)-2,5-diphenyl tetrazolium bromide (also called MTT) was used for testing cell viability. MTT is a yellow compound and a dye that accepts hydrogen ions and acts on the respiratory chain of living cell mitochondria. Under the action of succinate dehydrogenase (SDH) and cytochrome C, the tetrazolium ring of MTT will be cracked to generate blue color crystals. The formation of crystals is proportional to the number of living cells (in dead cells, because there is no active succinate dehydrogenase, MTT cannot be reduced). The O.D value can indirectly represent cell viability because of the MTT reduction ability of living cells.
In the present experimental example, then the cell viability was assayed by adding MTT reagent to the various cell cultures of wound healing test. The results are shown in FIG. 11, among all of the groups, the group treated with RRE-1 had the highest cell viability. The result corresponds to the result of FIG. 4. In FIG. 11, the effects of cell viability were ranked as RRE-1>DPTA>MAHMA. The trend is similar to the result of FIG. 10.

VEGFR-2 = assay: Western blot assay, VEGFR-2 expression; format: cell-based, human; conditions: EAHY926, 7.8 μM, 24 hours, FIG. 12
Protocol: (§3) In the literature, nitric oxide releasing agents have the potential for promoting angiogenesis and wound healing in vivo, and are also clinically useful agents that can effectively promote the expression of vascular endothelial growth factor receptor 2 (VEGFR2). Therefore, this experiment intended to test the effect of the respective various nitric oxide releasing agents on the expression of angiogenesis-related proteins (e.g., TIE-2, and VEGFR-2).
(§4) EAHY926 cells were seeded in cell culture dishes at 37° C. […] After 24 hours incubation, the cultures were washed with PBS three times and added 250 microliters (μL) of cell lysis buffer, then the cells were scraped and the proteins of the cells were extracted for Western blot experiment.

EAHY926 cells [3] = assay: Cell development index assay (Angiogenesis Analyzer for ImageJ); format: cell-based, human; conditions: EAHY926, 7.8 μM, 24th hour; for numbers of endothelial junctions (rank of effects): FIG. 7A; for numbers of endothelial meshes (rank of effects): FIG. 7B; for total branching lengths (rank of effects): FIG. 7C
Protocol: as §1
EAHY926 cells were seeded in cell culture plates at 37° C. […] Microscopic images were taken within the first hour and the 24th hour after the addition of nitric oxide releasing agents, and the images were analyzed by “Angiogenesis Analyzer for ImageJ” software for analyzing cell development index. The analyzed cell development parameters include cell meshes, cell junctions and cell branches.
Please refer to FIGS. 5A to 5H and FIGS. 6A to 6H. In the analysis of cell development, the gray lines were represented as cell branches of the cell-cell junction, and the more lines mean more growth of the cells. In addition, when the cells were more developed because they had more cell branches, the cells were represented by white lines. As the degree of cell development increased, cell junctions (dark gray dots) became more. Further, the cells enclosed multiple circles (black lines) which were called cell meshes.

TIE-2 = assay: Western blot assay, TIE-2 expression; format: cell-based, human; conditions: EAHY926, 7.8 μM, 24 hours, FIG. 12
Protocol: as §3, §4

[4] = system: zebrafish with fluorescence gene Tg (fli1: EGFP) y1; assay: In vivo angiogenesis assay in zebrafish; conditions: 7.8 μM
Protocol: In this experiment, zebrafish with fluorescence gene Tg (fli1: EGFP) y1 were used for in vivo angiogenesis analysis. The zebrafish nutrient solutions were respectively added with the respective various nitric oxide releasing agents at 7.8 μM concentration. The zebrafish were incubated with nitric oxide releasing agents for 24 to 48 hours. The confocal microscopy images were taken at the beginning, the 24th hour, and the 48th hour after incubation, and semi-quantitative analysis of neovascularization in zebrafish oocysts was performed.
FIGS. 14A to 14E show images taken within the first hour after addition of the nitric oxide releasing agents. FIGS. 15A to 15E are images taken within the 24th hour after addition of the nitric oxide releasing agents. FIGS. 16A to 16E are images taken within the 48th hour after addition of nitric oxide releasing agents. Neovascularization in the zebrafish oocyst area is indicated by the white arrows.

chicken embryos = assay: Chicken chorioallantoic membrane assay (CAM); format: in vivo; conditions: 7.8 μM injected into eggs after 6 days incubation, 2 days of culture, FIG. 20
Protocol: In this experimental example, the insemination eggs were placed on the egg rack and the eggs' gas chamber were placed upwards in the hatching incubator. After incubation for 6 days, the eggs were screened with an egg detector, and the insemination eggs with hatching embryos were selected. Then, small holes were respectively drilled on the air chamber end (blunt end) and a side of the selected eggs, and 7.8 μM of the respective various nitric oxide releasing agents were injected through the small holes at the blunt end, sterilized filter films were covered on the hole of the air chamber, and then ventilation tapes were put on. The eggs were continuously incubated in the incubator. After 2 days of culture, the eggs were poked and placed in Petri dishes to observe and recorded by a camera.
The condition of the control group was the eggs with no addition of nitric oxide releasing agents.

[5] = system: Immunodeficient nude mice; assay: In vivo angiogenesis assay (DIVAA) in mice; set-up: species or system mouse; conditions: soft tubes implanted in the back, 7.8 μM, twenty days, FIG. 13
From the text: as §1
Immunodeficient nude mice (6 in each group) were fixed on the operating table and anesthetized (1-3% isoflurane/100% oxygen, flow rate 1 L/min). After the mice were fixed, two 1 cm incisions were respectfully cut on the left and right back of the mice with a surgical knife. Soft tubes containing mixtures of cell nutrient agents and 7.8 μM of respective nitric oxide releasing agents were prepared. These soft tubes were implanted into the back of the mice, then the wounds were washed with normal saline and were stitched. After 20 days, the soft tubes were removed and the hemoglobins within the soft tubes were released. The total amounts of hemoglobin were analyzed by ELISA analyzer for obtaining the correlation parameters of angiogenesis.
The control group was the conditioned of the soft tube without nitric oxide releasing agents.

EAHY926 cells [6] = assay: Cell viability assay (MTT); format: cell-based, human; conditions: EAHY926, 24 hours, 37° C., at various concentrations, FIG. 4
From the text: as §1, §2

Molecule	effect on wound healing (images) (EAHY926 cells [1])	cell viability (MTT) after wound healing test (EAHY926 cells [2])	expression of protein VEGFR-2 (Western blot) (VEGFR-2)	numbers of endothelial junctions (rank of effects) (EAHY926 cells [3])	numbers of endothelial meshes (rank of effects) (EAHY926 cells [3])	total branching lengths (rank of effects) (EAHY926 cells [3])	expression of protein TIE-2 (Western blot) (TIE-2)	angiogenesis (neovascularization in zebrafish oocyst area) ([4]; 24 hours, FIG. 17)	angiogenesis of chicken embryos (CAM) (chicken embryos)	angiogenesis inside the soft tubes (total amounts of hemoglobin) [5]	promotion of cell growth (cell viability, MTT) (EAHY926 cells [6])	angiogenesis (neovascularization in zebrafish), overall statement ([4]; 24 to 48 hours)
1-(hydroxy-NNO-azoxy)-L-proline, disodium salt	more significant effects on wound healing	–	–	–	–	–	–	–	–	–	–	–
NCCCN(CCCN)/[N+]([O-])=N/O [DPTA, (Z)-1-[N-(3-aminopropyl)-N-(3-ammoniopropyl)amino]diazen-1-ium-1,2-diolate]	more significant effects on wound healing	RRE-1>DPTA>MAHMA	–	–	–	–	–	–	–	–	–	–
CNCCCCCCN(C)/[N+]([O-])=N/O [MAHMA, (Z)-1-[N-Methyl-N-[6-(N-methylammoniohexyl)amino]]diazen-1-ium-1,2-diolate]	–	RRE-1>DPTA>MAHMA	only induced a small amount	RRE-1>VEGF>Spermine>MAHA	RRE-1>VEGF>MAHMA>Spermine	RRE-1>Spermine>VEGF>MAHMA	only induced a small amount	most effective	–	–	–	–
NCCCNCCCCNCCCN [Spermine]	more significant effects on wound healing	–	only induced a small amount	RRE-1>VEGF>Spermine>MAHA	RRE-1>VEGF>MAHMA>Spermine	RRE-1>Spermine>VEGF>MAHMA	only induced a small amount	–	similar	followed by VEGF and Spermine	–	–
VEGF	more significant effects on wound healing	–	only induced a small amount	RRE-1>VEGF>Spermine>MAHA	RRE-1>VEGF>MAHMA>Spermine	RRE-1>Spermine>VEGF>MAHMA	only induced a small amount	–	–	followed by VEGF and Spermine	does not work better than other commercially available nitric oxide-releasing agents	not effective as expected
